# US20250281460A1, “PEGYLATED BILIRUBIN FOR THE TREATMENT OF […], OBESITY, FATTY LIVER DISEASE, CARDIOVASCULAR DISEASES AND TYPE II DIABETES” (The University of Toledo, priority 2019, published 2025)
# Entries after “also recorded” stand apart in the source; their conditions may differ.
# Key:
# [1] = molecular target: T1, human PPARα-LBD (Homo sapiens, UniProt Q07869); assay: MARCONI / PamStation nuclear hormone receptor coregulator assay; format: binding; details: 50 μM
# T1 construct: purchased Invitrogen PV4692
# T1 sequence (Q07869 239-466 limits assumed): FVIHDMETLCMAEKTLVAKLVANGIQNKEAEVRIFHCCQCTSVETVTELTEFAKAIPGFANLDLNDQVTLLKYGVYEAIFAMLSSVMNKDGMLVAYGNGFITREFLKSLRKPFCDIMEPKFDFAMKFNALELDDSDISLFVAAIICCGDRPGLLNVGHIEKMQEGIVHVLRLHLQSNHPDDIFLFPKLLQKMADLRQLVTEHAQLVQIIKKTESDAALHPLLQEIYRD
# Protocol: The molecular determinants that dictate specificity and selectivity in PPARα-coregulator interactions are largely unknown. […] To determine if bilirubin binds to the ligand binding domain (LBD) of PPARα to cause recruitment of a specific set of co-regulator proteins, the Microarray Assay for Realtime Coregulator-Nuclear Receptor Interaction (MARCONI) technology was used.
# Incubation was performed at 37° C. for 5 minutes in 1.5 ml microtubes prior to placement on respective array for analysis in a PamStation96 (Pamgene International). PPARα binding was reflected via fluorescent signals recorded through the Pamstation96. The signals were transformed into tiff images and binding capacity was quantified using BioNavigator software (Pamgene International).
# [2] = test system: BAT PPARα CRISPR KO cells; assay: Seahorse analysis in BAT PPARα CRISPR KO cells; format: cell-based, mouse; details: both KO clones, 24 hours
# From the text: To further delineate the actions of bilirubin on BAT, CRISPR technology was developed to knockout (KO) PPARα and establish two null clone lines. […]. The function of the ligands was lost in both clones for the BAT PPARα CRISPR KO cells.
# CRISPR-Technology was employed in BAT as previously described to excise part of Exon 3 and Exon 4 of the PPARα gene to create a PPARα Knockout BAT cell line. Two sgRNAs with high efficacy and low off-target scores were identified on Exon 3 and 4 of the mouse PPARα gene using Benchling online software. The two Cas9 targets were separated by 9,465 bases. All of the off-targets to our PPARα sgRNA had 4 mismatches, of which at least 1-2 were within the seed region (up to 12 bases proximal to the protospacer adjacent motif (PAM) site) which reduces the likelihood of Cas9 off-target effects. The multiplex sgRNAs were generated using the PrecisionX Multiplex gRNA Cloning Kit according to manufacturer instructions. […] After 36 h of transfection, cells with the top 10% level of fluorescence were single-sorted into 96-well plates by fluorescent activated cell sorting. […]
# Cellular respiration was quantified using the Seahorse Extracellular Flux Analyzer XF-96 (Agilent Technologies, Cedar Creek, TX). […] The oxygen consumption rate (OCR) and extracellular acidification rate (ECAR) were used to quantify the cellular energy phenotype of the cells. […]
# [3] = test system: BAT cells; assay: SeaHorse analysis in murine BAT cell line (wild-type); format: cell-based
# [4] = test system: 3T3-L1-WAT adipocytes; assay: SeaHorse oxygen consumption rate in fully differentiated 3T3-L1-WAT adipocytes; format: cell-based, mouse; details: 50 μM biliverdin, 50 μM WY 14,463, 10 μM rosiglitazone
# Protocol: To compare the effects of bilirubin on the activation of PPARα or PPARγ on mitochondrial function, a SeaHorse XFe96 Analyzer was used to measure oxygen consumption rate (OCR) in fully differentiated 3T3-L1-WAT adipocytes treated with 50 μM biliverdin, 50 μM WY 14,463 (PPARα agonist), or 10 μM rosiglitazone (PPARγ-agonist). […]. Rosiglitazone, but not biliverdin or WY 14,643, enhanced the coupling efficiency. None of the ligands affected non-mitochondrial respiration, basal respiration, or proton leak.
# Cellular respiration was quantified using the Seahorse Extracellular Flux Analyzer XF-96 (Agilent Technologies, Cedar Creek, TX). The Seahorse XF Cell Mito Stress Test Kit (Agilent Technologies, Cat #103015-100) was used for analysis of cellular respiration. BAT or 3T3-L1 cells were seeded on a XF96 cell culture microplate (Agilent 101085-004) at 20,000 cells per well. Cells were then differentiated as previously described for 9 days. […] The oxygen consumption rate (OCR) and extracellular acidification rate (ECAR) were used to quantify the cellular energy phenotype of the cells. After treatment, cells were washed twice with Seahorse Bioscience Assay Media (XF Base media with 25 mM Glucose, 2 mM […], and 1 mM Sodium Pyruvate) then incubated with the buffer for 1 hour in a non-CO2 incubator. The Seahorse Cartridge ports were loaded with […] of assay media with […] FCCP, 10 μM Oligomycin, 5 μM Rotenone/Antimycin A in different ports an hour before assay. […] The raw data and graphs were supplied as an Excel File or Graphpad Prizm file.
# [5] = test system: BAT cells; assay: Real-time PCR in differentiated BAT cells; format: cell-based, murine; details: 50 μM biliverdin, 50 μM WY14,463, 10 μM rosiglitazone, 24 hrs
# Protocol: Total RNA was extracted from mouse tissues using the miRNeasy Mini Kit (Qiagen). Total RNA was read on a NanoDrop 2000 spectrophotometer (Thermo Fisher Scientific, Wilmington, DE) and cDNA was synthesized using High Capacity cDNA Reverse Transcription Kit (Applied Biosystems). PCR amplification of the cDNA was performed by quantitative real-time PCR using TrueAmp SYBR Green qPCR SuperMix (Advance Bioscience). The thermocycling protocol consisted of 3 min at 95° C., 48 cycles of 15 sec at 95° C., 30 sec at 60° C., and based on primer size 0 to 30 sec at 72° C. and finished with a melting curve ranging from 60-95° C. to allow distinction of specific products. Normalization was performed in separate reactions with primers to 36B4.
binding to the human PPARα-LBD [1],binding of the human PPARα LBD to coregulator motifs ([1]; 154 coregulator motifs),Compound,coregulators with reduced interactions with the human PPARα LBD ([1]; subtracted from the vehicle),highest interacting coregulators recruited to PPARα-LBD ([1]; subtracted from the vehicle),function of the ligands on mitochondrial function (OCR) [2],proton leak ([3]; BAT cells),"ATP production ([3]; WT BAT cells, 24 hours)","basal respiration (OCR) ([3]; WT BAT cells, 24 hours)","maximum respiration (OCR) ([3]; WT BAT cells, 24 hours)",ATP production [4],mitochondrial OCR for maximum respiration [4],Adrb3 mRNA [5],Ucp1 mRNA [5]
direct binding,mitigate binding,"C=CC1=C(C)/C(=C/c2[nH]c(Cc3[nH]c(/C=C4\NC(=O)C(C)=C4C=C)c(C)c3CCC(=O)O)c(CCC(=O)O)c2C)NC1=O [bilirubin, Bilirubin]","PRGR (LXXL 102-124), PRGC1 (LXXL 134-154), and PELP1 (LXXL 446-468)","MAPE (LXXL 249-271), WIPII (LXXL 313-335), CNOT1 (LXXL 2083-2105), PELP1 (LXXL 571-593), and others",,,,,,,,,
,,"Cc1cccc(Nc2cc(Cl)nc(SCC(=O)O)n2)c1C [WY 14,643, WY-14,643]",,,lost,stimulated,increased; also recorded: stimulated,increased,increased; also recorded: significantly higher,not observed,significantly increased,significant increase,significant increase
